Laboratory results taken from publication PMC4473678, “Swedish mutant APP-based BACE1 binding site peptide reduces APP β-cleavage and cerebral Aβ levels in Alzheimer’s mice” (Scientific Reports, 2015).
“Also recorded” adds a separate entry of the source.

Assays:
[1] = phase II, suspended June 2013; cited from earlier work
Description: Although these BACE1-null abnormalities are relatively mild, they are complex neurological phenotypes that raise a concern that complete inhibition or entire absence of BACE1 function may not be fre ...

treated patients = conditions: Phase III; cited from earlier work
Description: Presenilin 1 and 2 (PS1/PS2), two integral membrane proteins found in the endoplasmic reticulum and Golgi apparatus, are the major enzymatic targets for γ-secretase inhibition for the treatment of AD[5]. However, apart from their roles in AD, PS1/PS2 also controls the Notch signaling pathway responsible for cell proliferation and differentiation during embryonic development. PS1/PS2-null mice have massive neuronal loss, skeletal defects, underdeveloped subventricular areas and severe hemorrhages, and only a few types of PS1/PS2-null mouse models survive after birth. Other subst ...

[2] = molecular target: recombinant BACE1 protein (β-site APP cleaving enzyme 1) (UniProt P56817)
recombinant BACE1 = test: BACE1 activity (FRET) assay, cell-free; assay type: biochemical; conditions: for % of Inhibition of BACE1: FRET substrate Rh-EVNLDAEFK-quencher, dark, ex 545/em 585 nm, mean ± SD
Method: The BACE1 inhibiting activity of APP-based BACE1 site binding peptides were determined using a fluorescence resonance energy transfer (FRET) assay (Pan Vera Co., Madison, WI), which employs a recombinant baculovirus-expressed BACE1 and a specific substrate (Rh-[…]-quencher) that is based on the APPswe mutation. This specific peptide substrate becomes highly fluorescent upon enzymatic cleavage. […] Then, 10 μL of BACE1 stop buffer (2.5 M sodium acetate) was added to the mixture. Fluorescence was read using a fluorometer, with excitation at 545 nm and emission at 585 nm.

brain of 5XFAD mice = conditions: mouse, in vivo
Method: 5XFAD mice at 2 months of age (n = 5, female) were treated intraperitoneally with biotin-labeled TAT-APPsweBBP or APPsweBBP (100 nmol/kg) daily for 5 days and then euthanized 4 h after the last injection. Brain tissues were removed, sectioned and stained with anti-BACE1 and anti-biotin antibodies.
Fixed cell cultures and brain sections were stained with indicated antibodies and then treated with donkey anti-mouse IgG conjugated with Alexa Fluor 488 (1:200) or goat anti-rabbit IgG conjugated with Alexa Fluor 594 (1:200; Invitrogen, Carlsbad, CA). The slides were then washed, mounted with DAPI medium (Vector Laboratories, Burlingame, CA) and visualized with an Olympus FV1000 confocal microscope (Tokyo, Japan).

BACE1 = conditions: cited from earlier work
WT mice [3] = test: Radial arm water maze (RAWM), WT mice; assay type: in vivo, mouse; conditions: 100 nmol/kg i.p. daily, 8 weeks, n = 10 per treatment
5XFAD mice [4] = test: Rotarod test, 5XFAD mice; assay type: in vivo, mouse; conditions: 100 nmol/kg i.p. daily, 8 weeks, n = 10 per treatment
Method: (§1) Transgenic AD mice [5XFAD; B6SJL-Tg(APPSwFlLon,PSEN1*M146L*L286V) 6799Vas/Mmjax] at 2.5 months of age were obtained from the Jackson Laboratory (Bar Harbor, ME) and housed and maintained in the Animal Facility of College of Medicine at University of South Florida (USF). The mice at 3.5 months of age were treated with TAT-APPsweBBP, TAT peptide (100 nmol/kg in 100 μL PBS) or PBS (100 μL) daily by intraperitioneal injection (i.p.) for eight consecutive weeks. The mice were subjected to behavioral testing after 8-week treatment and then euthanized for immunohistochemical, WB and ELISA analyses. Animals were housed and maintained at USF and all experiments were in compliance with protocols approved by USF Institutional Animal Care and Use Committee. All methods were performed in accordance with relevant guidelines and regulations.
The rotarod task was also performed to exclude the possibility that positive effects of any treatment in RAWM test are due to improvements in sensorimotor ability. Mice were positioned on the rod (diameter 3.6 cm) of the equipment (Rotarod 7650 accelerating model; Ugo Basile, Biological Research Apparatus, Varese, Italy), which was initially set at 1.0 rpm. The rod was then allowed to steadily accelerate up to 40.0 rpm over a 3-min session and evaluation was made by monitoring latency to fall.

WT mice [5] = test: Rotarod test, WT mice; assay type: in vivo, mouse; conditions: 100 nmol/kg i.p. daily, 8 weeks, n = 10 per treatment
Akt and MBP = test: WB of myelin signaling (Akt, MBP) in brain homogenates, 5XFAD mice; assay type: in vivo, mouse; conditions: TAT-APPsweBBP, TAT and PBS groups compared
Method: as §1
WB analysis was performed as previously described. Briefly, the proteins from the various cell-free suspensions, cell lysates and brain homogenates were electrophoretically separated using 10% bicine/tris gel (8 M urea) for proteins less than 5 kD or 10% tricine/tris gels for larger proteins. Electrophoresed proteins were transferred to polyvinylidene difluoride membranes (Bio-Rad, Richmond, CA), washed and blocked for 2 h at room temperature in Tris-buffered saline containing 5% (w/v) nonfat dry milk (TBS/NFDM). […]

5XFAD mice [6] = test: β-amyloid immunohistochemistry (4G8), 5XFAD mice; assay type: in vivo, mouse; conditions: 100 nmol/kg i.p. daily, 8 weeks, RSC, EC and H regions, n = 10, 5 female/5 male
Method: as §1
For paraffin brain tissues, we sectioned five coronal sections per region with a 100-μm interval and a thickness of 5-μm for retrosplenial cortex (RSC), entorhinal cortex (EC), and hippocampus (H), located at bregma −2.92 to −3.64 mm. […] Images were acquired as digitized tagged-image format files (to retain maximum resolution) using a BX60 microscope with an attached CCD camera system (DP-70, Olympus, Tokyo, Japan), and digital images were routed into a Windows PC for quantitative analyses using SimplePCI software (Hamamatsu Photonics, Hamamatsu, Shizuoka, Japan). […]

[7] = test system: recombinant BACE1 protein; test: Immunoprecipitation/WB of peptide-BACE1 binding, cell-free; conditions: 10 μg biotin-labeled peptide with 10 μL recombinant BACE1 (1.0 U/mL), 4 h, 37 °C; anti-BACE1 IP/anti-biotin WB and reverse
Method: In order to confirm that APPsweBBP containing the β-cleavage site could bind to and be consequently proteolyzed by BACE1, 10 μg of biotin-labeled TAT-APPsweBBP was incubated with or without 10 μL of recombinant BACE1 protein (1.0 U/mL) in BACE1 reaction buffer for 4 h at 37 °C and then subjected to WB analysis as described previously. In addition, we performed immunoprecipitation (IP) and WB analyses of this mixture with anti-BACE1 and anti-biotin antibodies to confirm that TAT-APPsweBBP, but not TAT, specifically binds to BACE1.

[8] = peptide final concentration 20 μM, 90 min, room temperature

recombinant BACE1 protein (β-site APP cleaving enzyme 1), sequence (P56817 46-501): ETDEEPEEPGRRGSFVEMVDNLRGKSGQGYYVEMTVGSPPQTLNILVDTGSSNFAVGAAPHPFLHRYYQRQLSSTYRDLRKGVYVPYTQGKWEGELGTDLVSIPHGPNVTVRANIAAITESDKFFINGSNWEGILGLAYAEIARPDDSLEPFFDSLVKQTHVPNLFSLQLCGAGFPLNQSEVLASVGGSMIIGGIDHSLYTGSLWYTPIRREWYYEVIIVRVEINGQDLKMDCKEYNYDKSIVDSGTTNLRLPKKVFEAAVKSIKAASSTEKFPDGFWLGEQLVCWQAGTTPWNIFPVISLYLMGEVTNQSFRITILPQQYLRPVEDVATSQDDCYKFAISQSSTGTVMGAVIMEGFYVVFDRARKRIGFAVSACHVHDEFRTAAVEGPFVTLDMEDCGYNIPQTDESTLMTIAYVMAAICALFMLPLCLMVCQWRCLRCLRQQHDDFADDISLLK

## NC1=N[C@@]2(c3cc(NC(=O)c4ccc(F)cn4)ccc3F)COC[C@H]2CS1 [LY2886721]
[1]
  liver toxicity: possible liver toxicity

## CC(C)[C@H](O)C(=O)N[C@@H](C)C(=O)N[C@@H]1C(=O)N(C)CCc2ccccc21 [semagacestat]
Treated patients
  activities of daily living and cognition: activities of daily living and cognition even worsened in the treated patients

## APPswe BACE1 binding site peptide (APPsweBBP) (from UniProt P05067 665-676)
[2]
  percent inhibition of BACE1 activity in a cell-free FRET assay (substrate Rh-…-quencher), peptide at 20 μM: 38.4%

## APPwt BACE1 binding site peptide (APPwtBBP)
[2]
  percent inhibition of BACE1 activity in a cell-free FRET assay (substrate Rh-…-quencher), peptide at 20 μM: 16.2%

## EISEVKMDAEFR
Recombinant BACE1; [8]
  % of Inhibition of BACE1: 16.23 ± 0.29%

## EISEVNLDAEFR [12-AA-residue fragment derived from human APPswe, containing APPswe β-cleavage sites (Glu665–Arg676 of APPswe770 isoform)]
Brain of 5XFAD mice
  BBB penetration (Fig. S4 legend): stopped at the capillary lumen
Brain of 5XFAD mice; ip
  biotin distribution, 5XFAD versus WT control mice: No noticeable differences in biotin distribution
Recombinant BACE1; FRET assay, APPsweBBP or TAT-APPsweBBP at 0.05, 0.5, 5 and 20 μM (Fig. 1)
  BACE1 inhibition (result in words): strongly inhibits BACE1 activity; also recorded: competitively inhibits the cleavage of commercial BACE1 substrate; also recorded: most effective BACE1 inhibitor; also recorded: much greater
Recombinant BACE1; FRET assay, peptide final concentration 20 μM, 90 min, room temperature
  percentage inhibition of BACE1: ~ 40%
Recombinant BACE1; [8]
  % of Inhibition of BACE1: 38.43 ± 1.01%

## EVKMDAEFR
Recombinant BACE1; [8]
  % of Inhibition of BACE1: 4.89 ± 0.06%

## EVNLA*AEF [OM99-2]
BACE1
  BBB crossing: too large to cross the BBB
  potency: high level of potency
  stability: not stable enough for use in therapeutic trials

## EVNLDAEFR
Recombinant BACE1; [8]
  % of Inhibition of BACE1: 14.32 ± 0.04%

## TAT-APPwtBBP (APPwt BACE1 binding site peptide fused with TAT)
[2]
  percent inhibition of BACE1 activity in a cell-free FRET assay (substrate Rh-…-quencher), peptide at 20 μM: 21%

## YGRKKRRQRRR [TAT (YGRKKRRQRRR), reference compound]
WT mice [3]
  RAWM entry-arm errors: no difference among the various treatment groups
5XFAD mice [4]
  rotarod latency to fall / motor performance: no differences between treatment groups on each day
WT mice [5]
  rotarod latency to fall: no differences between treatment groups on each day
Akt and MBP
  Akt (total/phosphorylated) in brain homogenates: differ between TAT-APPsweBBP-, TAT- and PBS-treated 5XFAD mice
  myelin basic protein (MBP) expression in brain homogenates: differ between TAT-APPsweBBP-, TAT- and PBS-treated 5XFAD mice
5XFAD mice [6]
  β-amyloid plaques / 4G8 immunoreactive area: no significant difference between TAT peptide and PBS groups
[7]
  binding to BACE1 (co-immunoprecipitation): but not TAT peptide, binds to BACE1
Recombinant BACE1; [8]
  % of Inhibition of BACE1: 3.32 ± 0.02%

## YGRKKRRQRRREISEVKMDAEFR [APPwtBBP fused with TAT]
Recombinant BACE1; [8]
  % of Inhibition of BACE1: 21.01 ± 1.42%

## biotin-labeled TAT-APPsweBBP (human Swedish mutant APP BACE1 binding site peptide conjugated to the HIV-1 TAT protein-transduction domain) (from UniProt P05067 665-676)
[2]
  percent inhibition of BACE1 activity in a cell-free FRET assay (substrate Rh-…-quencher), peptide at 0.05, 0.5, 5 and 20 μM: > 90%
